What is called pIC50 is −log10 of the IC50, conventionally taken in molar units. A word on the pEC50: it is −log10 of the EC50, conventionally taken in molar units.

In assay [1] the target is T1, human recombinant CBL-b (human Biotin CBL-b recombinant protein a.a. 39-426) (Homo sapiens, UniProt Q13191).
T1 construct: human Biotin CBL-b recombinant protein a.a; 39-426; Biotin (biotinylated); made in house
The experiment in a line: Biochemical assay for CBL-b inhibition (ligand displacement TR-FRET). In kind it is binding. The settings on record: 50 nM CBL-b, 0.3 μM Bodipy FL-Probe, read-out: IC50 (CBL-b inhibition, group). In short, it runs like this: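 Ligand-displacement TR-FRET: 0.3 μM Bodipy FL probe competes with compound for 50 nM biotin-CBL-b (aa 39-426) after a 60 min RT compound pre-incubation; terbium-streptavidin detection, 60 min each step. Dose-response sigmoidal fitting gave IC50 and % maximum inhibition.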
In general terms: Time-resolved FRET reads energy transfer from a long-lived donor to a nearby acceptor.

For assay [2], the system named is NFAT signaling pathway in Jurkat NFAT reporter cells. The experiment in a line: Jurkat NFAT reporter assay. In kind it is cell-based. The settings on record: Homo sapiens, 30 min with compound, then soluble anti-human CD3/CD28 antibody for 6 hours, luciferase readout, read-out: EC50 (Group). The method, then: A human T lymphocyte Jurkat reporter cell line was further used to assess activation of the nuclear factor of activated T-cells (NFAT) signaling pathway by Cbl-b inhibitors. The reporter cell line is a genetically engineered Jurkat T cell line that expresses a luciferase reporter driven by an NFAT-response element (NFAT-RE). The Cbl-b inhibitor was incubated with 1×10^5 Jurkat NFAT reporter cells per well for 30 minutes. Subsequently, cells were stimulated with soluble anti-human CD3/CD28 antibody for 6 hours resulting in NFAT-RE-mediated luminescence. The bioluminescent signal is detected and quantified using Bio-Glo™ Luciferase Assay System. Readouts were reported as fold change over baseline. Here, baseline was the measurement obtained from Jurkat NFAT reporter cells stimulated with anti-CD3 antibody and anti-CD28 antibody, where the cells were not incubated with a Cbl-b inhibitor.

Structures are written as SMILES. pEC50, pIC50: −log10 of the molar value.

T1 sequence (Q13191 39-426): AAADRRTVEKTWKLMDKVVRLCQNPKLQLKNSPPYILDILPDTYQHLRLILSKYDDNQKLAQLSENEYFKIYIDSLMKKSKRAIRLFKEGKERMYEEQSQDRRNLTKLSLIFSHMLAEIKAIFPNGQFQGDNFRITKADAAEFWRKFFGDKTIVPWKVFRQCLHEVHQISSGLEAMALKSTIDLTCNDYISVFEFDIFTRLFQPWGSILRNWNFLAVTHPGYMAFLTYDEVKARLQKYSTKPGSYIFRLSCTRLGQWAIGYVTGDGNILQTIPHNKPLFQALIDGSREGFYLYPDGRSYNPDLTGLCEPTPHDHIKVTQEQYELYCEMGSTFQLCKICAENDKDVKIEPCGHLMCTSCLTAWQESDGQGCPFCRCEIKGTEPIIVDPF

As for `C[C@H]1CCCN(Cc2cc(Cl)nc(N3Cc4ccc(C5(Cc6nncn6C)CC(F)(F)C5)cc4C3=O)c2)C1` [Compound 152, (S)-2-(6-Chloro-4-((3-methylpiperidin-1-yl)methyl)pyridin-2-yl)-6-(3,3-difluoro-1-((4-methyl-4H-1,2,4-triazol-3-yl)methyl)cyclobutyl)isoindolin-1-one], in assay [1], the pIC50 is > 7.10. Also, the negative logarithm of the EC50 (pEC50) in assay [2] was > 6.52.
As for `Cn1cnnc1CC1(c2ccc3c(c2)C(=O)N(c2cc(CNC[C@H]4CCCO4)cc(Cl)n2)C3)COC1` (single isomer, unassigned) [Compound 195], in assay [1], the negative-log IC50 (pIC50) was > 7.10. Besides, in assay [2], the pEC50 is 5.00 to 6.00.
For `C[C@H](NC1CCCC1)c1cc(Cl)nc(N2Cc3ccc(-c4ccc(Cl)cc4-c4nncn4C)cc3C2=O)c1` (single isomer, unassigned) [Compound 105, 6-(4-Chloro-2-(4-methyl-4H-1,2,4-triazol-3-yl)phenyl)-2-(6-chloro-4-(1-(cyclo-pentylamino)ethyl)pyridin-2-yl)isoindolin-1-one], in that order: > 7.10 and > 6.52.
Regarding `Cn1cnnc1-c1cc(F)ccc1-c1ccc2c(c1)C(=O)N(c1cc(CNCC3CC3)cc(C(F)(F)F)n1)C2` [Compound 265, 2-(4-(((Cyclopropylmethyl)amino)methyl)-6-(trifluoromethyl)pyridin-2-yl)-6-(4-fluoro-2-(4-methyl-4H-1,2,4-triazol-3-yl)phenyl)isoindolin-1-one], in assay [1], the negative logarithm of the IC50 (pIC50) was > 7.10. Also, the pEC50 in assay [2] was > 6.52.
For `Cn1cnnc1CC1(c2ccc3c(c2)C(=O)N(c2cc(CNCC4CC4)cc(Cl)n2)C3)CC(C#N)C1` (stereo not shown) [Compound 156], in assay [1], the pIC50 is > 7.10. Moreover, the pEC50 in assay [2] was 6.00 to 6.52.
Take `C[C@@H]1C[C@H](C)CN(Cc2cc(N3Cc4ccc([C@@H](C)Cc5nncn5C)cc4C3=O)nc(C(F)(F)F)c2)C1` (single isomer, unassigned) [Compound 86]: the negative-log IC50 (pIC50) in assay [1] was > 7.10. The pEC50 in assay [2] was > 6.52.
In the same order, the values of `Cn1cnnc1CC1(c2ccc3c(c2)C(=O)N(c2cc(CNCc4cscn4)cc(Cl)n2)C3)COC1` [Compound 189] are > 7.10 and 5.00 to 6.00.
Turning to `Cc1cc([C@@H](C)NC2CCCC2)cc(N2Cc3ccc(-c4ccc(Cl)cc4-c4nncn4C)cc3C2=O)n1` (single isomer, unassigned) [Compound 126, 6-(4-Chloro-2-(4-methyl-4H-1,2,4-triazol-3-yl)phenyl)-2-(4-(1-(cyclopentyl-amino)ethyl)-6-methylpyridin-2-yl)isoindolin-1-one], the pIC50 in assay [1] was > 7.10. The pEC50 in assay [2] is > 6.52.
For `Cc1cc(CN[C@@H]2CCC[C@H]2O)cc(N2Cc3ccc(-c4ccc(F)cc4-c4nncn4C)cc3C2=O)n1` [Compound 314, 6-(4-Fluoro-2-(4-methyl-4H-1,2,4-triazol-3-yl)phenyl)-2-(4-((((1R,2R)-2-hydroxycyclopentyl)amino)methyl)-6-methylpyridin-2-yl)isoindolin-1-one], in that order: > 7.10 and 6.00 to 6.52.
In the same order, the values of `C[C@@H](NCc1cc(Cl)nc(N2Cc3ccc(-c4ccc(Cl)cc4-c4nncn4C)cc3C2=O)c1)C1CC1` (single isomer, unassigned) [Compound 108, 6-(4-Chloro-2-(4-methyl-4H-1,2,4-triazol-3-yl)phenyl)-2-(6-chloro-4-(((1-cyclo-propylethyl)amino)methyl)pyridin-2-yl)isoindolin-1-one] are > 7.10 and > 6.52.
For `C[C@H](NC1CCCC1)c1cc(Cl)nc(N2Cc3ccc(C4(Cc5nncn5C)COC4)cc3C2=O)c1` (single isomer, unassigned) [Compound 231], in that order: > 7.10 and > 6.52.
Turning to `Cc1cc(C(C)NCC2CC(F)(F)C2)cc(N2Cc3ccc(-c4ccc(Cl)cc4-c4nncn4C)cc3C2=O)n1` (stereo not shown) [Compound 281, 6-(4-Chloro-2-(4-methyl-4H-1,2,4-triazol-3-yl)phenyl)-2-(4-(1-(((3,3-difluoro-cyclobutyl)methyl)amino)ethyl)-6-methylpyridin-2-yl)isoindolin-1-one], the pIC50 in assay [1] is > 7.10. The negative logarithm of the EC50 (pEC50) in assay [2] was > 6.52.
In the same order, the values of `Cn1cnnc1CC1(c2ccc3c(c2)C(=O)N(c2cc(CN4CC[C@H](F)C4)cc(C(F)(F)F)n2)C3)COC1` [Compound 61, (S)-2-(4-((3-Fluoropyrrolidin-1-yl)methyl)-6-(trifluoromethyl)pyridin-2-yl)-6-(3-((4-methyl-4H-1,2,4-triazol-3-yl)methyl)oxetan-3-yl)isoindolin-1-one] are 5.30 to 6.52 and 5.00 to 6.00.
For `Cn1cnnc1C[C@]1(c2ccc3c(c2)C(=O)N(c2cc(CNCC4CCC4)cc(Cl)n2)C3)C[C@H](C#N)C1` (single isomer, unassigned) [Compound 244, (1r,3r)-3-(2-(6-Chloro-4-(((cyclobutylmethyl)amino)methyl)pyridin-2-yl)-3-oxoisoindolin-5-yl)-3-((4-methyl-4H-1,2,4-triazol-3-yl)methyl)cyclobutane-1-carbonitrile], in that order: > 7.10 and > 6.52.
In the same order, the values of `Cn1cnnc1CC1(c2ccc3c(c2)C(=O)N(c2cc(CNCC4CCC4)cc(Cl)n2)C3)COC1` [Compound 144, 2-(6-Chloro-4-(((cyclobutylmethyl)amino)methyl)pyridin-2-yl)-6-(3-((4-methyl-4H-1,2,4-triazol-3-yl)methyl)oxetan-3-yl)isoindolin-1-one] are > 7.10 and > 6.52.
On to `Cn1cnnc1-c1cc(Cl)ccc1-c1ccc2c(c1)C(=O)N(c1cc(CNC[C@@H]3CCCO3)cc(Cl)n1)C2` (single isomer, unassigned) [Compound 123, 6-(4-Chloro-2-(4-methyl-4H-1,2,4-triazol-3-yl)phenyl)-2-(6-chloro-4-((((tetra-hydrofuran-2-yl)methyl)amino)methyl)pyridin-2-yl)isoindolin-1-one], for which, in assay [1], the negative-log IC50 (pIC50) was > 7.10. For the same compound, the pEC50 in assay [2] is 6.00 to 6.52.
For `Cn1cnnc1C[C@]1(c2ccc3c(c2)C(=O)N(c2cc(CNCC4CC4)cc(Cl)n2)C3)C[C@@H](C#N)C1` (single isomer, unassigned) [Compound 234, (1s,3s)-3-(2-(6-Chloro-4-(((cyclopropylmethyl)amino)methyl)pyridin-2-yl)-3-oxoisoindolin-5-yl)-3-((4-methyl-4H-1,2,4-triazol-3-yl)methyl)cyclobutane-1-carbonitrile], in that order: > 7.10 and 5.00 to 6.00.
In the same order, the values of `C[C@@H]1C[C@H](C)CN(Cc2cc(N3Cc4ccc(C5(Cc6nncn6C)CC(C#N)C5)cc4C3=O)nc(C(F)(F)F)c2)C1` (stereo partly shown) [Compound 143] are > 7.10 and > 6.52.
In the same order, the values of `CCC(NC1CCCC1)c1cc(Cl)nc(N2Cc3ccc(C4(Cc5nncn5C)COC4)cc3C2=O)c1` (stereo not shown) [Compound 251, 2-(6-Chloro-4-(1-(cyclopentylamino)propyl)pyridin-2-yl)-6-(3-((4-methyl-4H-1,2,4-triazol-3-yl)methyl)oxetan-3-yl)isoindolin-1-one] are > 7.10 and > 6.52.
Consider `Cn1cnnc1CC1(c2ccc3c(c2)C(=O)N(c2cc(CNCC4(O)CCC4)cc(Cl)n2)C3)COC1` [Compound 216], for which the pIC50 in assay [1] was > 7.10. In addition, the negative logarithm of the EC50 (pEC50) in assay [2] is 5.00 to 6.00.
`CC1CCC(C)N(Cc2cc(N3Cc4ccc(C5(Cc6nncn6C)COC5)cc4C3=O)nc(C(F)(F)F)c2)C1` (stereo not shown) [Compound 93, 2-(4-((2,5-Dimethylpiperidin-1-yl)methyl)-6-(trifluoromethyl)pyridin-2-yl)-6-(3-((4-methyl-4H-1,2,4-triazol-3-yl)methyl)oxetan-3-yl)isoindolin-1-one]: the negative logarithm of the EC50 (pEC50) in assay [2] was 6.00 to 6.52.
In the case of `C[C@H]1CCCN(Cc2cc(Cl)nc(N3Cc4ccc(-c5ccccc5-c5nncn5C)cc4C3=O)c2)C1` [Compound 118, (S)-2-(6-Chloro-4-((3-methylpiperidin-1-yl)methyl)pyridin-2-yl)-6-(2-(4-methyl-4H-1,2,4-triazol-3-yl)phenyl)isoindolin-1-one], the negative-log IC50 (pIC50) in assay [1] was > 7.10.
Still for that read-out and setting: next, `Cc1cc(CNCC2CC2)cc(N2Cc3ccc(-c4cc(Cl)ccc4-c4nncn4C)cc3C2=O)n1` [Compound 270]: 5.30 to 6.52.
Same read-out and setting: next, `Cn1cc(CNCc2cc(Cl)nc(N3Cc4ccc(C5(Cc6nncn6C)COC5)cc4C3=O)c2)cn1` [Compound 211]: 5.30 to 6.52.
The same measure, in the same setting: next, `Cn1cnnc1CC1(c2ccc3c(c2)C(=O)N(c2cc(CNC(C)(C)C4CC4)cc(Cl)n2)C3)COC1` [Compound 228]: 5.30 to 6.52; `Cn1cnnc1CC1(c2ccc3c(c2)C(=O)N(c2cc(CNc4ccccn4)cc(Cl)n2)C3)COC1` [Compound 238]: 6.52 to 7.10.
Turning to `CC(Cc1nncn1C)c1cnc2c(c1)C(=O)N(c1cc(CN3CCC[C@H](C)C3)cc(Cl)n1)C2` (stereo partly shown) [Compound 150], in assay [1], the pIC50 was 6.52 to 7.10.
With `C[C@H]1CCCN(Cc2ccnc(N3Cc4ccc(C5(Cc6nncn6C)COC5)cc4C3=O)c2)C1` [Compound 149], the pIC50 in assay [1] is 6.52 to 7.10.
On the same count and under the same terms, the value for `Cc1cc(CNCC2CC2)cc(N2Cc3ccc(-c4ccc(F)cc4-c4ncco4)cc3C2=O)n1` [Compound 287] was 6.52 to 7.10.

Values taken from patent US20260226073A1 (AURIGENE ONCOLOGY LIMITED, priority 2023, published 2026).
